The test system of this assay is CD2F1 mice, L1210 leukemia ip, survival T/C. Briefly: NCI In Vivo Anticancer Drug Screen. Data for tumor model L1210 Leukemia (intraperitoneal) in CD2F1 (CDF1) mice. Conditions: endpoint: mean survival time, higher = longer survival. Put shortly: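 Ratio T/C, where T is the treated-group value and C the vehicle-dosed control value, from mice implanted with a transplantable tumor.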

Setting [1] is: dose: 100.0 mg/kg/injection, schedule: Q01DX009 (ip), vehicle: saline with Tween-80.
[2] abbreviates: dose: 200.0 mg/kg/injection, schedule: Q01DX009 (ip), vehicle: saline with Tween-80.
Where [3] appears, read: dose: 400.0 mg/kg/injection, schedule: Q01DX009 (ip), vehicle: saline with Tween-80.
Where [4] appears, read: dose: 100.0 mg/kg/injection, schedule: Q04DX003 (ip), vehicle: saline with Tween-80.
Where [5] appears, read: dose: 200.0 mg/kg/injection, schedule: Q04DX003 (ip), vehicle: saline with Tween-80.
Where [6] appears, read: dose: 400.0 mg/kg/injection, schedule: Q04DX003 (ip), vehicle: saline with Tween-80.
The mark [7] stands for this setting: dose: 100.0 mg/kg/injection, schedule: Q01DX009 (ip), vehicle: saline.
The mark [8] stands for this setting: dose: 100.0 mg/kg/injection, schedule: Q04DX002 (ip), vehicle: saline with Tween-80.
[9] abbreviates: dose: 200.0 mg/kg/injection, schedule: Q01DX009 (ip), vehicle: saline.
Setting [10] is: dose: 200.0 mg/kg/injection, schedule: Q04DX002 (ip), vehicle: saline with Tween-80.
Setting [11] is: dose: 400.0 mg/kg/injection, schedule: Q04DX002 (ip), vehicle: saline with Tween-80.
Where [12] appears, read: dose: 50.0 mg/kg/injection, schedule: Q01DX009 (ip), vehicle: saline.
The mark [13] stands for this setting: dose: 100.0 mg/kg/injection, schedule: Q04DX003 (ip), vehicle: Klucel (hydroxypropylcellulose) (HPC).
Where [14] appears, read: dose: 200.0 mg/kg/injection, schedule: Q04DX003 (ip), vehicle: Klucel (hydroxypropylcellulose) (HPC).
Setting [15] is: dose: 400.0 mg/kg/injection, schedule: Q04DX003 (ip), vehicle: Klucel (hydroxypropylcellulose) (HPC).

Structures are written as SMILES. Several values for one entry are separate records, joined by “and”; a condition that tells them apart may be missing. Equal entries are not always repeated. Toxic doses and inconclusive results are not listed.

The values below come from PubChem BioAssay AID256 (DTP/NCI, 2004).

In the case of `CN1CC(=O)N=C1N.CN1CC(=O)N=C1N.[Cl][Pt][Cl]`, the T/C was 102 % of control (dose: 3.13 mg/kg/injection, schedule: Q04DX003 (ip), vehicle: water); 96 % of control (dose: 6.25 mg/kg/injection, schedule: Q04DX003 (ip), vehicle: water); 96 % of control (dose: 12.5 mg/kg/injection, schedule: Q04DX003 (ip), vehicle: water); 100 % of control (dose: 25.0 mg/kg/injection, schedule: Q04DX003 (ip), vehicle: water); 102 % of control (dose: 50.0 mg/kg/injection, schedule: Q04DX003 (ip), vehicle: water); 92 % of control (dose: 100.0 mg/kg/injection, schedule: Q04DX003 (ip), vehicle: water).

With `O=C1NC(=O)C2CC=CCC12` (centres undefined), the T/C reads like this: under setting [1], 96 % of control; under setting [2], 102 % of control; under setting [3], 102 % of control.

For the compound `O=C(NC(Cc1c[nH]c2ccccc12)C(=O)O)c1ccccc1` (centres undefined), the T/C is 108 % of control under setting [1]; 109 % of control under setting [4]; 100 % of control under setting [2]; 98 % of control under setting [5]; 104 % of control under setting [3]; 103 % of control under setting [6]. The T/C (dose: 600.0 mg/kg/injection, schedule: Q01DX009 (ip), vehicle: saline with Tween-80) is 108 % of control.

For the compound `CCCCCCCCCCCCCCCC(=O)N(CCCN(C)C)c1ccc(N(CCCN(C)C)C(=O)CCCCCCCCCCCCCCC)cc1`, the T/C (dose: 1.5 mg/kg/injection, schedule: Q01DX009 (ip), vehicle: saline sonified) is 98 % of control; the T/C (dose: 3.0 mg/kg/injection, schedule: Q01DX009 (ip), vehicle: saline sonified) was 101 % of control; the T/C (dose: 6.0 mg/kg/injection, schedule: Q01DX009 (ip), vehicle: saline sonified) is 98 % of control.

In the case of `COc1cc(-c2ccc(N)c(OC)c2)ccc1N`, the T/C by setting is: (dose: 100.0 mg/kg/injection, schedule: Q01DX001 (ip), vehicle: saline with Tween-80) 100 % of control; under setting [7], 96 % of control and 100 % of control; under setting [8], 102 % of control; (dose: 100.0 mg/kg/injection, schedule: Q04DX003 (ip), vehicle: saline) 97 % of control; (dose: 200.0 mg/kg/injection, schedule: Q01DX001 (ip), vehicle: saline with Tween-80) 96 % of control; under setting [9], 100 % of control and 102 % of control. The T/C is 100 % of control under setting [10]; 94 % of control (dose: 200.0 mg/kg/injection, schedule: Q04DX003 (ip), vehicle: saline); 103 % of control (dose: 400.0 mg/kg/injection, schedule: Q01DX001 (ip), vehicle: saline with Tween-80); 100 % of control under setting [11]; 103 % of control (dose: 400.0 mg/kg/injection, schedule: Q04DX003 (ip), vehicle: saline).

With `CN(CCO)C1=C(N2CC2)C(=O)C(N(C)CCO)=C(N2CC2)C1=O`, the T/C reads like this: (dose: 0.5 mg/kg/injection, schedule: Q01DX009 (ip), vehicle: saline) 115 % of control and 117 % of control; (dose: 1.0 mg/kg/injection, schedule: Q01DX009 (ip), vehicle: saline) 155 % of control; (dose: 1.5 mg/kg/injection, schedule: Q01DX009 (ip), vehicle: saline) 201 % of control and 211 % of control.

In the case of `[CH3][Sb]([CH3])([CH3])([O]C(=O)C(Cl)(Cl)Cl)[O]C(=O)C(Cl)(Cl)Cl`, the T/C by setting is: under setting [8], 98 % of control; under setting [10], 107 % of control; under setting [11], 103 % of control.

Turning to `O=C1C=C(N2CCOCC2)c2ccccc2C1=O`, the T/C (dose: 75.0 mg/kg/injection, schedule: Q01DX001 (ip), vehicle: saline) is 100 % of control and the T/C (dose: 150.0 mg/kg/injection, schedule: Q01DX001 (ip), vehicle: saline) was 94 % of control.

As to `COC(=O)C(C)NC(=O)CCNC(=O)OCc1ccccc1` (centres undefined), the T/C is, setting by setting: under setting [4], 93 % of control; under setting [5], 93 % of control; under setting [6], 90 % of control.

As to `CCCCOC(=O)C1C2CCC(O2)C1C(N)=O` (centres undefined), the T/C (dose: 25.0 mg/kg/injection, schedule: Q04DX002 (ip), vehicle: saline with Tween-80) is 95 % of control and the T/C (dose: 50.0 mg/kg/injection, schedule: Q04DX002 (ip), vehicle: saline with Tween-80) was 101 % of control.

With `CNCCN1CCC(Cc2ccccc2)CC1`, the T/C is 102 % of control under setting [12], 100 % of control under setting [7] and 106 % of control under setting [9].

As to `CCOC(=O)C(C(=O)OCC)C(=O)c1cccc2c1ccc1ccccc12`, the T/C runs as follows: (dose: 100.0 mg/kg/injection, schedule: Q01DX005 (ip), vehicle: saline with Tween-80) 95 % of control; under setting [1], 104 % of control; (dose: 200.0 mg/kg/injection, schedule: Q01DX005 (ip), vehicle: saline with Tween-80) 95 % of control; under setting [2], 93 % of control; (dose: 400.0 mg/kg/injection, schedule: Q01DX005 (ip), vehicle: saline with Tween-80) 95 % of control; under setting [3], 86 % of control.

On to `c1ccc(N=C(C(=Nc2ccccc2)c2ccccn2)c2cccnc2)cc1`, for which the T/C reads like this: (dose: 100.0 mg/kg/injection, schedule: Q01DX001 (ip), vehicle: Klucel (hydroxypropylcellulose) (HPC)) 93 % of control; (dose: 200.0 mg/kg/injection, schedule: Q01DX001 (ip), vehicle: Klucel (hydroxypropylcellulose) (HPC)) 103 % of control; (dose: 400.0 mg/kg/injection, schedule: Q01DX001 (ip), vehicle: Klucel (hydroxypropylcellulose) (HPC)) 100 % of control.

In the case of `Cc1nc(C)c(CCO)c(=O)[nH]1`, the T/C is 97 % of control under setting [4], 101 % of control under setting [5] and 103 % of control under setting [6].

`O=C(Nc1ccccc1I)c1ccccc1`: the T/C was 110 % of control under setting [4], 98 % of control under setting [5] and 98 % of control under setting [6].

In the case of `CC1(C)CC(NC(=O)CSc2ncnc3c2ncn3C2OC(CO)C(O)C2O)CC(C)(C)N1O` (centres undefined), the T/C (dose: 12.5 mg/kg/injection, schedule: Q01DX005 (ip), vehicle: water) was 96 % of control; the T/C (dose: 25.0 mg/kg/injection, schedule: Q01DX005 (ip), vehicle: water) was 94 % of control; the T/C (dose: 50.0 mg/kg/injection, schedule: Q01DX005 (ip), vehicle: water) is 94 % of control; the T/C (dose: 100.0 mg/kg/injection, schedule: Q01DX005 (ip), vehicle: water) was 102 % of control; the T/C (dose: 200.0 mg/kg/injection, schedule: Q01DX005 (ip), vehicle: water) was 96 % of control.

Regarding `O=C(O)CCc1nc2ccccc2c(=O)n1Cc1ccccc1`, the T/C by setting is: under setting [13], 106 % of control; under setting [14], 98 % of control; under setting [15], 95 % of control.

With `COC1OC2COC(c3ccccc3)OC2C(O)C1O` (centres undefined), the T/C by setting is: under setting [13], 105 % of control; under setting [14], 95 % of control; under setting [15], 95 % of control.

With `CCCC(=O)Nc1ncnc2c1ncn2C1OC2COP(=O)(O)OC2C1OC(=O)CCC` (centres undefined), the T/C by setting is: (dose: 12.5 mg/kg/injection, schedule: Q01DX009 (ip), vehicle: saline) 109 % of control; (dose: 12.5 mg/kg/injection, schedule: Q01DX009 (ip), vehicle: suspension in saline) 98 % of control; (dose: 25.0 mg/kg/injection, schedule: Q01DX009 (ip), vehicle: saline) 97 % of control; (dose: 25.0 mg/kg/injection, schedule: Q01DX009 (ip), vehicle: suspension in saline) 100 % of control; under setting [12], 98 % of control; (dose: 50.0 mg/kg/injection, schedule: Q01DX009 (ip), vehicle: suspension in saline) 100 % of control. Further, the T/C runs as follows: under setting [7], 101 % of control; (dose: 100.0 mg/kg/injection, schedule: Q01DX009 (ip), vehicle: suspension in saline) 105 % of control; under setting [9], 98 % of control; (dose: 200.0 mg/kg/injection, schedule: Q01DX009 (ip), vehicle: suspension in saline) 94 % of control; (dose: 400.0 mg/kg/injection, schedule: Q01DX009 (ip), vehicle: saline) 103 % of control; (dose: 400.0 mg/kg/injection, schedule: Q01DX009 (ip), vehicle: suspension in saline) 115 % of control.
